Melting point data for 33 compounds are collected here from patent publication US6995182B2, “1-sulfonyl pyrrolidine derivatives” (Hoffmann-La Roche Inc., priority 2000, dated 2006).

What is called melting point is the temperature of the solid-liquid transition.

Molecules are shown by their SMILES.

`Cc1ccc(S(=O)(=O)N2[C@@H](CCc3nc(C)no3)CC[C@H]2c2ccc(F)cc2)cc1` (racemic) [Example 30, (2RS,5SR)-5-{2-[5-(4-Fluoro-phenyl)-1-(toluene-4-sulfonyl)-pyrrolidin-2-yl]-ethyl}-3-methyl-[1,2,4]oxadiazole]: the melting point amounted to 91 °C.
`Cc1ccc(S(=O)(=O)N2[C@@H](CCc3nnco3)CC[C@H]2c2ccc(F)cc2)cc1` (racemic) [Example 127, (2RS,5SR)-2-{2-[5-(4-Fluoro-phenyl)-1-(toluene-4-sulfonyl)-pyrrolidin-2-yl]-ethyl}-[1,3,4]oxadiazole]: the melting point worked out at 138 °C.
The same measure for `CC(=O)NCC[C@H]1CC[C@@H](c2ccc(F)cc2)N1S(=O)(=O)c1ccc(Cl)cc1` (racemic) [Example 56, (2RS,5SR)-N-{2-[1-(4-Chloro-benzenesulfonyl)-5-(4-fluoro-phenyl)-pyrrolidin-2-yl]-ethyl}-acetamide]: 103 °C; for `Cc1ccc(S(=O)(=O)N2[C@@H](CCC(N)=O)CC[C@H]2c2ccc(F)cc2)cc1` (racemic) [Example 29, (2RS,5SR)-3-[5-(4-Fluoro-phenyl)-1-(toluene-4-sulfonyl)-pyrrolidin-2-yl]-propionamide]: 136 °C; for `Cc1ccc(S(=O)(=O)N2[C@@H](Cc3nc(C4CC4)no3)CC[C@H]2c2ccc(F)cc2)cc1` (racemic) [Example 95, (2RS,5SR)-3-Cyclopropyl-5-[5-(4-fluoro-phenyl)-1-(toluene-4-sulfonyl)-pyrrolidin-2-ylmethyl]-[1,2,4]oxadiazole]: 102 °C.
With `O=C(NCC[C@H]1CC[C@@H](c2ccc(F)cc2)N1S(=O)(=O)c1ccc(Cl)cc1)C1CC1` (racemic) [Example 57, (2RS,5SR)-Cyclopropanecarboxylic acid {2-[1-(4-chloro-benzenesulfonyl)-5-(4-fluoro-phenyl)-pyrrolidin-2-yl]-ethyl}-amide], the melting point came to 80 °C.
Take `Cc1ccc(S(=O)(=O)N2[C@@H](CCNC(=O)c3ccccc3)CC[C@H]2c2ccc(F)cc2)cc1` (racemic) [Example 18, (2RS,5SR)-N-{2-[5-(4-Fluoro-phenyl)-1-(toluene-4-sulfonyl)-pyrrolidin-2-yl]-ethyl}-benzamide]: the melting point amounted to 60 °C.
`COC(=O)[C@H]1CC[C@@H](c2ccc(F)cc2)N1S(=O)(=O)c1ccc(C)cc1` (racemic) [Example 1, (2RS,5SR)-5-(4-Fluoro-phenyl)-1-(toluene-4-sulfonyl)-pyrrolidine-2-carboxylic acid methyl ester] returned a melting point of 91 °C.
Then `Cc1ccc(S(=O)(=O)N2[C@@H](CCc3ncnn3C)CC[C@H]2c2ccc(F)cc2)cc1` (racemic) [Example 78, (2RS,5SR)-5-{2-[5-(4-Fluoro-phenyl)-1-(toluene-4-sulfonyl)-pyrrolidin-2-yl]-ethyl}-1-methyl-1H-[1,2,4]triazole], with 145 °C; and `CCC(=O)NC[C@H]1CC[C@@H](c2ccc(F)cc2)N1S(=O)(=O)c1ccc(C)cc1` (racemic) [Example 15, (2RS,5SR)-N-[5-(4-Fluoro-phenyl)-1-(toluene-4-sulfonyl)-pyrrolidin-2-yl-methyl]-propionamide], with 142 °C.
In turn, `Cc1ccc(S(=O)(=O)N2[C@@H](C(N)=O)CC[C@H]2c2ccc(F)cc2)cc1` (racemic) [Example 3, (2RS,5SR)-5-(4-Fluoro-phenyl)-1-(toluene-4-sulfonyl)-pyrrolidine-2-carboxylic acid amide] yielded a melting point of 137 °C.
With `Cc1ccc(S(=O)(=O)N2[C@@H](CCC(=N)NO)CC[C@H]2c2ccc(F)cc2)cc1` (racemic) [Example 34, (2RS,5SR)-3-[5-(4-Fluoro-phenyl)-1-(toluene-4-sulfonyl)-pyrrolidin-2-yl]-N-hydroxy-propionamidine], the melting point came to 134 °C.
`Cc1ccc(S(=O)(=O)N2[C@@H](CC#N)CC[C@H]2c2ccc(F)cc2)cc1` (racemic) [Example 10, (2RS,5SR)-[5-(4-Fluoro-phenyl)-1-(toluene-4-sulfonyl)-pyrrolidin-2-yl]-acetonitrile]: the melting point amounted to 116 °C.
On to `COC[C@@H]1CC[C@H](c2ccc(F)cc2)N1S(=O)(=O)c1ccc(C)cc1` (racemic) [Example 8, (2RS,5SR)-2-(4-Fluoro-phenyl)-5-methoxymethyl-1-(toluene-4-sulfonyl)-pyrrolidine], for which the melting point came to 152 °C.
Turning to `Cc1ccc(S(=O)(=O)N2[C@@H](CCCO)CC[C@@H]2c2ccc(F)cc2)cc1` (racemic) [Example 44, (2RS,5RS)-3-[5-(4-Fluoro-phenyl)-1-(toluene-4-sulfonyl)-pyrrolidin-2-yl]-propan-1-ol], the melting point worked out at 93 °C.
In the case of `Cc1ccc(S(=O)(=O)N2[C@@H](CCc3nc(C4CC4)no3)CC[C@H]2c2ccc(F)cc2)cc1` (racemic) [Example 75, (2RS,5SR)-3-Cyclopropyl-5-{2-[5-(4-fluoro-phenyl)-1-(toluene-4-sulfonyl)-pyrrolidin-2-yl]-ethyl}-[1,2,4]oxadiazole], the melting point turned out to be 129 °C.
`Cc1ccc(S(=O)(=O)N2[C@H](CCCc3nnn(C)n3)CC[C@@H]2c2ccc(F)cc2)cc1` (racemic) [Example 49, (2RS,5RS)-5-{3-[5-(4-Fluoro-phenyl)-1-(toluene-4-sulfonyl)-pyrrolidin-2-yl]-propyl}-2-methyl-2H-tetrazole] displayed a melting point of 107 °C.
The same measure for `Cc1ccc(S(=O)(=O)N2[C@@H](c3nnn(C)n3)CC[C@H]2c2ccc(F)cc2)cc1` (racemic) [Example 27, (2RS,5SR)-5-[5-(4-Fluoro-phenyl)-1-(toluene-4-sulfonyl)-pyrrolidin-2-yl]-2-methyl-2H-tetrazole]: 150 °C.
`Cc1ccc(S(=O)(=O)N2[C@@H](c3ncon3)CC[C@H]2c2ccc(F)cc2)cc1` (racemic) [Example 14, (2RS,5SR)-3-[5-(4-Fluoro-phenyl)-1-(toluene-4-sulfonyl)-pyrrolidin-2-yl]-[1,2,4]oxadiazole] had a melting point of 165 °C.
The same measure for `Cc1ccc(S(=O)(=O)N2C(C3=NOC(C)N3)CCC2c2ccc(F)cc2)cc1` (stereo not drawn) [Example 28, 3-[5-(4-Fluoro-phenyl)-1-(toluene-4-sulfonyl)-pyrrolidin-2-yl]-5-methyl-4,5-dihydro-[1,2,4]oxadiazole]: 68 °C; for `CC(=O)NCCC[C@@H]1CC[C@H](c2ccc(F)cc2)N1S(=O)(=O)c1ccc(Cl)cc1` (racemic) [Example 66, (2RS,5RS)-N-{3-[1-(4-Chloro-benzenesulfonyl)-5-(4-fluoro-phenyl)-pyrrolidin-2-yl]-propyl}-acetamide]: 49 °C; for `Cc1ccc(S(=O)(=O)N2[C@@H](CCCO)CC[C@H]2c2ccc(F)cc2)cc1` [Example 64, (2S,5S)-3-[5-(4-Fluoro-phenyl)-1-(toluene-4-sulfonyl)-pyrrolidin-2-yl]-propan-1-ol]: 96 °C.
Compound `Cc1ccc(S(=O)(=O)N2[C@H](CCCc3nnnn3C)CC[C@@H]2c2ccc(F)cc2)cc1` (racemic) [Example 50, (2RS,5RS)-5-{3-[5-(4-Fluoro-phenyl)-1-(toluene-4-sulfonyl)-pyrrolidin-2-yl]-propyl}-1-methyl-1H-tetrazole] came in with a melting point of 153 °C.
Then `CC(=O)NCC[C@H]1CC[C@@H](c2ccc(F)cc2)N1S(=O)(=O)c1ccc(C)cc1` (racemic) [Example 20, (2RS,5SR)-N-{2-[5-(4-Fluoro-phenyl)-1-(toluene-4-sulfonyl)-pyrrolidin-2-yl]-ethyl}-acetamide], with 124 °C; and `Cc1ccc(S(=O)(=O)N2[C@@H](CNC(=O)C3CCCC3)CC[C@H]2c2ccc(F)cc2)cc1` (racemic) [Example 37, (2RS,5SR)-Cyclopentanecarboxylic acid [5-(4-fluoro-phenyl)-1-(toluene-4-sulfonyl)-pyrrolidin-2-yl-methyl]-amide], with 147 °C.
The same measure for `Cc1ccc(S(=O)(=O)N2[C@@H](Cc3nc(C)no3)CC[C@H]2c2ccc(F)cc2)cc1` (racemic) [Example 96, (2RS,5SR)-5-[5-(4-Fluoro-phenyl)-1-(toluene-4-sulfonyl)-pyrrolidin-2-ylmethyl]-3-methyl-[1,2,4]oxadiazole]: 103 °C.
Turning to `Cc1ccc(S(=O)(=O)N2[C@H](CCCCc3nnnn3C)CC[C@@H]2c2ccc(F)cc2)cc1` (racemic) [Example 54, (2RS,5RS)-5-{4-[5-(4-Fluoro-phenyl)-1-(toluene-4-sulfonyl)-pyrrolidin-2-yl]-butyl}-1-methyl-1H-tetrazole], the melting point was found to be 120 °C.
Then `Cc1ccc(S(=O)(=O)N2[C@@H](C(=O)NCc3cccnc3)CC[C@H]2c2ccc(F)cc2)cc1.Cl` (racemic), with 186 °C.
`Cc1ccc(S(=O)(=O)N2[C@@H](CNC(=O)C(C)(C)C)CC[C@H]2c2ccc(F)cc2)cc1` (racemic) [Example 38, (2RS,5SR)-N-[5-(4-Fluoro-phenyl)-1-(toluene-4-sulfonyl)-pyrrolidin-2-yl-methyl]-2,2-dimethyl-propionamide] returned a melting point of 128 °C.
The same measure for `Cc1ccc(S(=O)(=O)N2[C@H](CCCCC#N)CC[C@@H]2c2ccc(F)cc2)cc1` (racemic) [Example 51, (2RS,5RS)-5-[5-(4-Fluoro-phenyl)-1-(toluene-4-sulfonyl)-pyrrolidin-2-yl]-pentanenitrile]: 79 °C; for `Cc1ccc(S(=O)(=O)N2[C@@H](CCO)CC[C@H]2c2ccc(F)cc2)cc1` (racemic) [Example 98, (2RS,5SR)-2-[5-(4-Fluoro-phenyl)-1-(toluene-4-sulfonyl)-pyrrolidin-2-yl]-ethanol]: 129 °C; for `Cc1ccc(S(=O)(=O)N2[C@@H](CO)CC[C@H]2c2ccc(F)cc2)cc1` [Example 58, (2R,5S)-[5-(4-Fluoro-phenyl)-1-(toluene-4-sulfonyl)-pyrrolidin-2-yl]-methanol]: 140 °C.
Then `Cc1ccc(S(=O)(=O)N2[C@@H](CO)CC[C@H]2c2ccc(F)cc2)cc1` (racemic) [Example 2, (2RS,5SR)-[5-(4-Fluoro-phenyl)-1-(toluene-4-sulfonyl)-pyrrolidin-2-yl]-methanol], with 82 °C.
